For 13 compounds, EC50 and IC50 results are on record in patent publication US20250206738A1, “WRN INHIBITORS” (Nimbus Wadjet, Inc., priority 2023, published 2025).

In assay [1] the test system is p21 induction in HCT 116 cells. Put plainly: p21 induction in cells (In-Cell Western, p21/GAPDH ratio). Type of assay: cell-based. To be noted: Homo sapiens, HCT-116, 24 h, 24 h compound incubation, read-out: P21_EC50. As to the method: Example 3: Method for Determining Effect on p21 Induction in Cells
The colon carcinoma cell line HCT 116 was obtained from ATCC and cultured in growth medium consisting of Mccoy's 5A Medium (Gibco 16600108) supplemented with 10% FBS (Transgene FS201-02) and 100 units/mL penicillin-streptomycin (Gibco 15140122) and maintained at 37° C. under 5% CO2. On the day of seeding, 2,000 cells in 30 μL of culture media were plated per well to Poly-D-Lysine 384 Well Black Clear Plates (Biocoat 356663) and incubated overnight at 37° C. under 5% CO2. The following day, compounds were serially diluted in DMSO for a total of 11 test concentrations. The typical starting concentration of compounds was 10 μM with 2-fold dilutions. Next, 150 nL of diluted compound was added in duplicate to the assay plate, using an Echo 655 (Labcyte). The plate was centrifuged at 500 RPM for 1 min and then incubated at 37° C. under 5% CO2 for 24 h. After 24h, medium was removed, and cells were fixed by adding 40 μL of 4% paraformaldehyde solution to each well and incubated for 20 min at room temperature. The plate was then washed 4 times with 100 μL per well of wash buffer (PBS with 0.1% Tween-20) using a microplate washer. Next, 30 μL of ice-cold methanol was added to each well and the plate was incubated at −20° C. for 10 min. The plate was washed 4 times with 100 μL per well of wash buffer by a microplate washer, then 30 μL per well of blocking buffer (Intercept PBS blocking buffer (LI-COR 927-70001) with 0.05% Tween-20) was added and the plate was incubated at room temperature with shaking for 2h. Next, to each test well, 20 μL of primary antibody solution (p21 Waf1/CIP (12D1) RabbitmAb (Cell Signaling Technologies 2947) diluted 1:1000 and GAPDH (D4C6R) Mouse mAb (Cell Signaling Technologies 97166) diluted 1:2000 in blocking buffer) was added and the plate was placed at 4° C., overnight. The following day, the plate was washed 5 times with 100 μL per well of wash buffer using a microplate washer for 5 min. 20 μL per well of secondary antibody (IRDye 680CW Goat anti-Mouse IgG (H+L) (LI-COR 926-68070) diluted 1: 2000 in Blocking Buffer and IRDye 800CW Goat anti-Rabbit IgG (H+L) (LI-COR 926-32211) diluted 1: 2000 in Blocking Buffer) was then added and the plate was stored for 2h in the dark at room temperature with shaking. The plate was then washed 4 times with 100 μL per well of wash buffer again using a microplate washer. Finally, the p21 signal and the GAPDH signal were quantified using a LI-COR Odyssey CLx Imager machine reading at 800 nm and 700 nm, respectively. Each plate contained DMSO control (low control) and an internal reference WRN inhibitor (high control) respectively. For quantitation, the 800 nm/700 nm ratio was calculated for each well to give fold p21 induction and then percent activation for each compound well was calculated as follows (100×(ratio cpd well−ratio low control)/(ratio high control−ratio low control)). EC50 values for each compound were generated after non-linear regression curve fitting using commercially available software.

Assay [2] concerns the target T1, human Werner helicase (WRN, Uniprot Q14191, amino acids 517-1235 with L1074F point mutation; WRN-BV08) (Homo sapiens, UniProt Q14191, L1074F).
T1 construct: Uniprot Q14191, amino acids 517-1235 with L1074F point mutation; 8xHis (C, cleaved yes); TEV cleavage site (ENLYFQG) (C, cleaved yes); made in house; host or cells: Sf9 insect cells (baculovirus, pFastBac)
Nature of the assay: WRN (BV08) ADP-Glo assay. Type of assay: biochemical. To be noted: WRN-BV08 (aa 517-1235, L1074F); read-out: ADP-Glo_hWRN_IC50. Put shortly:
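WRN 517-1235 (L1074F, untagged, Sf9-expressed), 0.15 nM, preincubated with compound 15 min at 25 °C, then 60 min with […] and 0.1 nM DNA duplex in Bicine pH 7.5, 1 mM MgCl2, 1% DMSO. ADP-Glo luminescence; % inhibition vs NSC-617145 control, four-parameter IC50 fit.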

T1 sequence (Q14191 with tags, fused parts or gaps L1074F): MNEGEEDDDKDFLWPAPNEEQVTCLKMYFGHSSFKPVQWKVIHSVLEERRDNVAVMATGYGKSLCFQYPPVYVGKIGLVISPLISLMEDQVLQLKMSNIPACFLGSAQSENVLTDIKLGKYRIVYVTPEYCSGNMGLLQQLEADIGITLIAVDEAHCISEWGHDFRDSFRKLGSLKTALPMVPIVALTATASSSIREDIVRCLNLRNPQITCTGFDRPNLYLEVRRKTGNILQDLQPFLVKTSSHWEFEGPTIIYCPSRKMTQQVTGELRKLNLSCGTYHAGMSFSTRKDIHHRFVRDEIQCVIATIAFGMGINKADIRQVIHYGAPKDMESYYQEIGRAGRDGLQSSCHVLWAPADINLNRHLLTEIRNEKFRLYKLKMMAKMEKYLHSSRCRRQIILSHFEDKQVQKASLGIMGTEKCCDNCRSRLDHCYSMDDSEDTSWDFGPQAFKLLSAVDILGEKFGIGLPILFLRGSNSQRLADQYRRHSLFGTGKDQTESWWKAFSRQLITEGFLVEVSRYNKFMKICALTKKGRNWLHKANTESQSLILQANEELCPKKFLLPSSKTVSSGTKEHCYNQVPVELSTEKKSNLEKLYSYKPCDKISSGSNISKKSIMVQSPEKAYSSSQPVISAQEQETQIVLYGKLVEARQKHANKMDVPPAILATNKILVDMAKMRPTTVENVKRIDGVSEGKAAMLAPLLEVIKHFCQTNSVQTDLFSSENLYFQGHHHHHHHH

As to `CCc1c(N2CCN(C(=O)c3c(O)ccc4ncoc34)CC2)c(=O)n2ncnc2n1CC(=O)NC12CC(C3CCC3)(C1)C2` [I-243, N-(3-cyclobutylbicyclo[1.1.1]pentan-1-yl)-2-(5-ethyl-6-(4-(6-hydroxybenzo[d]oxazole-7-carbonyl)piperazin-1-yl)-7-oxo-[1,2,4]triazolo[1,5-a]pyrimidin-4(7H)-yl)acetamide], the EC50 in assay [1] was more than 5000 nM. In assay [2], the IC50 was in the range of 100 to 500 nM.

Take `CCc1c(N2CCN(C(=O)c3ncc4c(c3O)CCO4)CC2)c(=O)n2nc(C3=CCOCC3)nc2n1CC(=O)NC12CC(C(C)(F)F)(C1)C2` [I-7, N-(3-(1,1-difluoroethyl)bicyclo[1.1.1]pentan-1-yl)-2-(2-(3,6-dihydro-2H-pyran-4-yl)-5-ethyl-6-(4-(4-hydroxy-2,3-dihydrofuro[2,3-c]pyridine-5-carbonyl)piperazin-1-yl)-7-oxo-[1,2,4]triazolo[1,5-a]pyrimidin-4(7H)-yl)acetamide]: the EC50 in assay [1] fell in the range of 2000 to 5000 nM. Also, the IC50 in assay [2] lay within 5 to 50 nM.

In the case of `CCc1c(N2CCN(C(=O)c3c(O)ccc4ncoc34)[C@H]3CC[C@@H]32)c(=O)c2nc(N(C)C)cnc2n1CC(=O)NC12CC(C(C)C)(C1)C2` [I-218, 2-(2-(dimethylamino)-6-ethyl-7-((1S,6S)-5-(6-hydroxybenzo[d]oxazole-7-carbonyl)-2,5-diazabicyclo[4.2.0]octan-2-yl)-8-oxopyrido[2,3-b]pyrazin-5(8H)-yl)-N-(3-isopropylbicyclo[1.1.1]pentan-1-yl)acetamide], the EC50 in assay [1] fell in the range of 500 to 2000 nM. In assay [2], the IC50 lay in the range of 5 to 50 nM.

Take `CCc1c(N2CCN(C(=O)c3c(O)ccc4ncoc34)CC2)c(=O)n2nc(-c3ccnc(OC)c3)nc2n1CC(=O)NC12CC(OC)(C1)C2` [I-241, 2-(5-ethyl-6-(4-(6-hydroxybenzo[d]oxazole-7-carbonyl)piperazin-1-yl)-2-(2-methoxypyridin-4-yl)-7-oxo-[1,2,4]triazolo[1,5-a]pyrimidin-4(7H)-yl)-N-(3-methoxybicyclo[1.1.1]pentan-1-yl)acetamide]: the EC50 in assay [1] was more than 5000 nM. Also, the IC50 in assay [2] was in the range of 100 to 500 nM.

Turning to `CCc1c(N2CCN(C(=O)c3ncnc(C)c3O)CC2)c(=O)c2oc(-c3ccnc(OC)c3)nc2n1CC(=O)NC12CC(C(F)(F)F)(C1)C2` [I-17, 2-(5-ethyl-6-(4-(5-hydroxy-6-methylpyrimidine-4-carbonyl)piperazin-1-yl)-2-(2-methoxypyridin-4-yl)-7-oxooxazolo[4,5-b]pyridin-4(7H)-yl)-N-(3-(trifluoromethyl)bicyclo[1.1.1]pentan-1-yl)acetamide], in assay [1], the EC50 lay in the range of 2000 to 5000 nM. Further, the IC50 in assay [2] was in the range of 5 to 50 nM.

For `CCc1c(N2CCN(C(=O)c3cccc(N4CCN(C)CC4)c3)[C@H]3CC[C@@H]32)c(=O)c2nn(C3=CCOCC3)nc2n1CC(=O)NC12CC(C(C)C)(C1)C2` [I-201, 2-(2-(3,6-dihydro-2H-pyran-4-yl)-5-ethyl-6-((1S,6S)-5-(3-(4-methylpiperazin-1-yl)benzoyl)-2,5-diazabicyclo[4.2.0]octan-2-yl)-7-oxo-2,7-dihydro-4H-[1,2,3]triazolo[4,5-b]pyridin-4-yl)-N-(3-isopropylbicyclo[1.1.1]pentan-1-yl)acetamide], the EC50 in assay [1] was 500 to 2000 nM. Further, the IC50 in assay [2] was not above 5 nM.

Regarding `CCc1c(N2CCN(C(=O)c3c(O)ccc4ncoc34)CC2)c(=O)n2nc(-c3ccnc(OC)c3)nc2n1CC(=O)NC12CC(C(F)(F)C(F)(F)F)(C1)C2` [I-38, 2-(5-ethyl-6-(4-(6-hydroxybenzo[d]oxazole-7-carbonyl)piperazin-1-yl)-2-(2-methoxypyridin-4-yl)-7-oxo-[1,2,4]triazolo[1,5-a]pyrimidin-4(7H)-yl)-N-(3-(perfluoroethyl)bicyclo[1.1.1]pentan-1-yl)acetamide], in assay [1], the EC50 was not above 500 nM. Also, the IC50 in assay [2] lay within 5 to 50 nM.

On to `CCc1c(N2CCN(C(=O)c3cnn(C)c3)CC2)c(=O)n2nc(-c3ccnc(OC)c3)nc2n1CC(=O)NC1Cc2ccc(F)cc2C1` (centres unmarked) [I-246, 2-(5-ethyl-2-(2-methoxypyridin-4-yl)-6-(4-(1-methyl-1H-pyrazole-4-carbonyl)piperazin-1-yl)-7-oxo-[1,2,4]triazolo[1,5-a]pyrimidin-4(7H)-yl)-N-(5-fluoro-2,3-dihydro-1H-inden-2-yl)acetamide], for which the EC50 in assay [1] was more than 5000 nM. Further, the IC50 in assay [2] lay in the range of 100 to 500 nM.

As to `CCc1c(N2CCN(C(=O)CC3CCCC(=O)N3)[C@H]3CC[C@@H]32)c(=O)c2nn(C3=CCOCC3)nc2n1CC(=O)NC12CC(C(C)C)(C1)C2` (stereo partly drawn) [I-235, 2-(2-(3,6-dihydro-2H-pyran-4-yl)-5-ethyl-7-oxo-6-((1S,6S)-5-(2-(6-oxopiperidin-2-yl)acetyl)-2,5-diazabicyclo[4.2.0]octan-2-yl)-2,7-dihydro-4H-[1,2,3]triazolo[4,5-b]pyridin-4-yl)-N-(3-isopropylbicyclo[1.1.1]pentan-1-yl)acetamide], the EC50 in assay [1] was more than 5000 nM. Further, in assay [2], the IC50 lay in the range of 5 to 50 nM.

As for `CCc1c(N2CCN(C(=O)c3ncnc(C)c3O)CC2)c(=O)c2nc3cc(C)sc3nc2n1CC(=O)NC12CC(C(F)(F)F)(C1)C2` [I-3, 2-(7-ethyl-6-(4-(5-hydroxy-6-methylpyrimidine-4-carbonyl)piperazin-1-yl)-2-methyl-5-oxopyrido[2,3-b]thieno[3,2-e]pyrazin-8(5H)-yl)-N-(3-(trifluoromethyl)bicyclo[1.1.1]pentan-1-yl)acetamide], in assay [1], the EC50 is more than 5000 nM. The IC50 in assay [2] lay within 5 to 50 nM.

On to `CCc1c(N2CCN(C(=O)c3ncnc(C)c3O)CC2)c(=O)n2nc(C3=CCN(C(=O)COC)CC3)nc2n1CC(=O)NC12CC(C3CC3)(C1)C2` [I-18, N-(3-cyclopropylbicyclo[1.1.1]pentan-1-yl)-2-(5-ethyl-6-(4-(5-hydroxy-6-methylpyrimidine-4-carbonyl)piperazin-1-yl)-2-(1-(2-methoxyacetyl)-1,2,3,6-tetrahydropyridin-4-yl)-7-oxo-[1,2,4]triazolo[1,5-a]pyrimidin-4(7H)-yl)acetamide], for which the EC50 in assay [1] was more than 5000 nM. The IC50 in assay [2] was 5 to 50 nM.

For the compound `CCc1c(N2CCN(C(=O)c3ncnc(C)c3O)[C@H]3CC[C@@H]32)c(=O)c2nc(N(C)C)cnc2n1CC(=O)NC1CC2(CCCC2)C1` [I-230, 2-(2-(dimethylamino)-6-ethyl-7-((1S,6S)-5-(5-hydroxy-6-methylpyrimidine-4-carbonyl)-2,5-diazabicyclo[4.2.0]octan-2-yl)-8-oxopyrido[2,3-b]pyrazin-5(8H)-yl)-N-(spiro[3.4]octan-2-yl)acetamide], in assay [1], the EC50 is more than 5000 nM. The IC50 in assay [2] is 5 to 50 nM.

As to `CCc1c(N2CCN(C(=O)c3ncnc(C)c3O)[C@H]3CC[C@@H]32)c(=O)n2nc(C3=CCOCC3)nc2n1CC(=O)NC12CC(C(C)C)(C1)C2` [I-222, 2-(2-(3,6-dihydro-2H-pyran-4-yl)-5-ethyl-6-((1S,6S)-5-(5-hydroxy-6-methylpyrimidine-4-carbonyl)-2,5-diazabicyclo[4.2.0]octan-2-yl)-7-oxo-[1,2,4]triazolo[1,5-a]pyrimidin-4(7H)-yl)-N-(3-isopropylbicyclo[1.1.1]pentan-1-yl)acetamide], in assay [1], the EC50 was not above 500 nM. Besides, in assay [2], the IC50 fell in the range of 5 to 50 nM.
